Series [1] in a line: Stability of test articles at different pH values (SGF, SIF, PBS). The note with it: 0.1 mM, 37° C., 0-120 min. Format: physicochemical. The method, then: FIG. 1A. […] (final concentration 0.1 mM) and the mixture was incubated at 37° C. for 120 min. total. […] Values represent mean+SEM of n=3 separate experiments.
FIG. 1B. Stability of Compound I-4 in 3 different fluid matrices modeling 3 different body fluids: SGF (gastric, pH 2.0), SIF (upper intestinal, pH 6.0), and PBS (systemic fluid, pH 7.4). […] (final concentration 0.1 mM) and the mixture was incubated at 37° C. for 120 min. total. […] Values represent mean+SEM of n=3 separate experiments.
10 mM stock solutions of test articles were prepared in DMSO. From this stock solution, a single concentration in a 10 μL aliquot was added to three fluid matrices: SGF at pH 2.0 (gastric), SIF at pH 6.0 (upper intestine), and PBS at pH 7.4 (systemic fluid). The final volume was 1 mL (0.1 mM).
LC-MS/MS analysis of test articles was performed on a Waters Acquity UPLC system in-line with a Waters TQ-S triple quadrupole mass spectrometer via an electrospray interface.
UPLC separation of samples was performed on a Waters BEH Phenyl 2.1×50 column at 40 C. Mobile phase was 0.1% formic acid in water for mobile phase A and 0.1% formic acid in acetonitrile as mobile phase B. Gradient elution was 1% B initial, 65% B to 95% B at 2 minutes, 95% B at 4 minutes, and 1% B at 4.1 minutes. Flow rate was 0.4 mL/min and 5 μL of samples was injected.

Series [2] has as its system Long Evans rats. The series can be described thus: Time-restricted (deprivation-induced) feeding, food intake. Format: in vivo, Long Evans rat. The note with it: for Food Consumption, AVG / Food Consumption: 2 h feeding; for Food Consumption, AVG: average of 12 animals; for Food Consumption: individual animals LT-1 to LT-12; for food intake (2 h feeding period): rat, in vivo. As for the experimental part: Food consumption was limited to 2 h/day and so was motivated by hunger caused by 22 h food deprivation. Water was freely available 24 h/day.
Specifically, 12 male Long-Evans rats were food-deprived for 22 h with a 2 h feeding period each day. Rats were trained to consume daily food during the 2 h period over 25 days. The testing phase was initiated once the rats consistently consumed 16-18 g of food per day with ≤10% variance in amount of feed consumed. Feeding took place in designated individual boxes in a quiet room separate from the housing room. Continuous remote monitoring via video camera during feeding was used to assess the BSS. Food consumption was measured by weighing the total available food before and after the 2 h feeding window, correcting for spillage. Lorcaserin (1 mg/kg) was included as a reference control (Higgins et al, 2011, Neuropsychopharmacology. 37(5): 1177-1191). Subjects were tested using a repeated-measures, Latin square design with 2-3 days wash-out between treatment cycles.
Drug was administered at a volume of 1 mL/kg, intraperitoneal (IP). […]: 0.1, 0.3, 1, 3 mg/kg. There was a pretreatment time of 30 minutes.
Drug was administered at a volume of 1 mL/kg, subcutaneous (SC) route. One dose was tested: 1 mg/kg (expressed as base). There was a pretreatment time of 10 minutes.
Following a five day period of familiarization to the test facility, animals were placed on a restricted diet regimen, in which they were allotted approximately 40 g of standard laboratory chow once per day (between 10:00 h and 14:00 h). Rats were trained to consume the daily food (approximately 16-18 g of feed consumed) over a 2 h period. Daily food intakes were stable by study Day 25, with the quantity of feed consumed varying by ≤10% per day. Water was available ad-libitum. Subjects were pair-housed for the duration of the study and were maintained on a 12 h/12 h light/dark cycle with all testing conducted during the animals' light cycle. All animal use procedures were performed in accordance with the principles of the Canadian Council on Animal Care (CCAC).
Feed was measured using a certified scale according to standard operating procedures prior to testing. Residual feed was weighed following completion of the 2 h feeding window to track total intake (g).
Compound I-19 and Lorcaserin were prepared fresh on each test day. Test article was suspended in 0.8% DMSO, 6% PEG400, and 93.2% HβCD (6% in H2O) and sonicated until fully dissolved. […] Pretreatment time (ptt) was 30 minutes prior to commencement of testing. Lorcaserin was dissolved in 0.9% saline and administered via the subcutaneous route with a dose volume of 1 mL/kg with a ppt of 10 minutes.
The primary measure from the BSS test was total measured food intake (g), expressed as mean+SEM. Data were analysed by repeated-measures ANOVA (with treatment as a factor) (Statistica Version 11, Statsoft Inc. [2012]). Planned post-hoc comparisons were made in the event of a significant main effect using Dunnett's test. Significance was set at P<0.05.

Where “and” joins values, the source holds several entries; their conditions need not be identical. Equal values may be shown once. Entries after “also recorded” stand apart in the source; their conditions may differ. Where a name gives a salt, the structure may show the parent alone.

In the case of `COCCOC1(c2ccc(Cl)cc2)c2ccccc2C2=NCCN21` (centres unmarked) [Compound I-4], the “Stability (% parent compound remaining)” value in series [1] (PBS (systemic fluid, pH 7.4)) is “no significant change in the amount of parent compound; also recorded: stable in all three fluid matrices”; in series [1] (SGF (gastric, pH 2.0)), “no significant change in the amount of parent compound; also recorded: stable in all three fluid matrices”; in series [1] (SIF (upper intestinal, pH 6.0)) it was “no significant change in the amount of parent compound; also recorded: stable in all three fluid matrices”.

In the case of `Clc1ccc(C2(OCC3OCCO3)c3ccccc3C3=NCCN32)cc1` (centres unmarked) [Compound I-19], the “Stability (% parent compound remaining)” value is listed as “time-dependent decrease in the amount; also recorded: some lack of stability” in series [1] (PBS (systemic fluid, pH 7.4)) and “time-dependent decrease in the LCMSMS peak area until 20 min; also recorded: some lack of stability over 15 min” in series [1] (SGF (gastric, pH 2.0)). The “Food Consumption, AVG” value in series [2] (0.1 mg/kg intraperitoneal) came out at 17.8 grams; in series [2] (0.3 mg/kg intraperitoneal), 17.2 grams; in series [2] (1 mg/kg intraperitoneal) it was 15.8 grams; in series [2] (3 mg/kg intraperitoneal), 15.9 grams. In addition, the “Food Consumption” value is 22.2 grams and 13.4 grams and 17.8 grams and 18.2 grams and 19.4 grams (2×) and 20.7 grams and 18 grams and 15.7 grams and 14.5 grams and 14.1 grams and 19.7 grams in series [2] (0.1 mg/kg intraperitoneal); 22.1 grams and 15 grams and 18.8 grams and 15.4 grams and 19 grams and 18.2 grams and 18.1 grams and 15.8 grams and 17.8 grams and 14.9 grams and 14.5 grams and 16.5 grams in series [2] (0.3 mg/kg intraperitoneal); 18.7 grams and 13.2 grams and 17.8 grams and 15.8 grams and 19.3 grams and 17.7 grams and 13.4 grams and 14 grams and 14.9 grams (2×) and 13.8 grams and 16.3 grams in series [2] (1 mg/kg intraperitoneal); 19 grams and 14.1 grams and 18.3 grams and 14 grams and 17.7 grams and 16.6 grams and 16.3 grams and 14.8 grams and 15.5 grams and 15 grams and 13.1 grams and 16.8 grams in series [2] (3 mg/kg intraperitoneal). Further, the “decrease of food intake vs vehicle” value in series [2] (3 mg/kg Compound I-19 IP) is given as 10.6%. In addition, the “effect on food intake” value in series [2] (acute, 0.1, 0.3, 1, 3 mg/kg IP) is “significantly decreased food intake at 1 and 3 mg/kg”. Moreover, the “food intake (2 h feeding period)” value in series [2] turned out to be 15.9 ± 0.5 g.

As to `C[C@H]1CNCCc2ccc(Cl)cc21` [lorcaserin, Lorcaserin hydrochloride, reference compound], the “Food Consumption, AVG” value in series [2] (Lorcaserin 1 mg/kg subcutaneous) came out at 14.6 grams. The “Food Consumption” value in series [2] (Lorcaserin 1 mg/kg subcutaneous, hydrochloride) was 17.9 grams and 12.7 grams (2×) and 12.5 grams and 18 grams and 17.7 grams and 16.3 grams and 15.7 grams and 12.9 grams and 13.1 grams and 13.5 grams and 12 grams. Further, in series [2] (lorcaserin 1 mg/kg SC), the “decrease of food intake vs vehicle” value amounted to 17.4%. Moreover, the “food intake (2 h feeding period)” value in series [2] was found to be 14.6 ± 0.7 g.

The values above are taken from US20250108038A1 (priority 2023, published 2025).
